Measured values as given in patent US5589457A, “Process for the synchronization of ovulation” (Ausa International, Inc., priority 1995, dated 1996).
No end group written: not given here.

Key:
cow = details: cited from earlier work
lactating dairy cows = test: Ovulation response to GnRH injection in lactating dairy cows; assay type: in vivo, bovine
Text: The sequential hormone treatments function in the following manner. The first injection of GnRH (or the LH or hCG if used) will cause ovulation of any large functional follicles that are present on the ovaries. Experimental work has shown that a follicle will ovulate in over 80% of lactating dairy cows that are given this GnRH injection. This ensures that a Corpus Luteum is present on the ovary to inhibit animals from coming into heat during the following week. This injection causes growth of a new wave of follicles due to secretion of follicle stimulating hormone (FSH) from the pituitary gland. Thus, the first injection of GnRH assures the presence of a corpus luteum and synchronizes the growth of a new follicular wave. The follicle that will eventually ovulate will come from this new wave of follicles.
As with other protocols, such as disclosed in the aforementioned patent to Donaldson, the injection of PGF2a is designed to regress any corpora lutea that are present on the ovary. This allows the new dominant follicle to proceed toward ovulation. Usually about 11/2 to 2 days later, just before two animals would begin to show signs of heat, the cows are given a second injection of GnRH. At this time the new dominant follicle should be at a large ovulatory size and this injection will cause the large follicle to ovulate. However, as indicated previously, the second dose of GnRH can be given at the same time as the PGF2a injection and this can be done where it is desirable to enhance management efficiency; that is by combining the PGF2a and GnRH injection, one step in the treatment protocol is eliminated. The cows will ovulate at 1-2 days, usually 24-32 hours after this second injection of GnRH. Thus, instead of having animals show heat over a 7 day period of time, ovulation can be synchronized to an 8 hour period of time. This concise synchronization allows for effective timed insemination.

cows = test: Artificial insemination concomitant with second GnRH dose (preliminary work); assay type: in vivo, bovine; details: insemination near or at the same time as second GnRH injection
Protocol: While the normal practice will be to inseminate the cows about 16-20 hours after the second GnRH injection, insemination can occur any time ranging from the time of the GnRH injection or a day before or up to about a day later. Ovulation need not occur before insemination since the sperm can survive in the reproductive track for up to one or even two days after insemination. Thus insemination can safely take place one day before the GnRH injection. Preliminary work has shown that in some cases there may be some advantages to carrying out the artificial insemination concomitantly with the administration of the second dose of GnRH or within eight hours either before or after the second dose of GnRH.

[1] = second GnRH injection after PGF2a

Row | Compound | time to heat after PGF2a, large dominant follicle present (cow; PGF2a given when a large dominant follicle is present) | time for follicle to grow large enough to induce heat after PGF2a, new follicular wave just beginning (cow; PGF2a given when a new follicular wave is just beginning) | period of time to which ovulation is synchronized (lactating dairy cows; after second GnRH injection) | lactating dairy cows in which a follicle will ovulate after the first GnRH injection (lactating dairy cows; first injection of GnRH, any stage of estrous cycle) | time of ovulation after second injection of GnRH (lactating dairy cows; [1]) | usual time of ovulation after second injection of GnRH (lactating dairy cows; [1]) | birth rate of female calves (cows) | spontaneous abortion rate (cows)
1 | CCCCC[C@H](O)/C=C/[C@@H]1[C@@H](C/C=C\CCCC(=O)O)[C@@H](O)C[C@H]1O [PGF2a, prostaglandin F2α] | 2 to 3 days | 6 to 7 days | – | – | – | – | – | –
2 | gonadotropin releasing hormone (QHWSYGLRPG; ends and bridges not checked; UniProt P01148 24-33, looked up) [GnRH] | – | – | 8 h | over 80% | 1 to 2 days | 24 to 32 h | enhancement in the birth rate of female calves | somewhat lower spontaneous abortion rate
